Source: the supplement of paper PMC10307832

What was measured:
Assay in all cases: relative viability (nuclei count vs DMSO), 5 days (fraction); higher = more cells survive
[1] = test system: NCI-H1944
Summary of the method: (§1)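 Relative viability divides the nuclei count in treated wells by that in vehicle wells. Lung cancer cell lines were seeded in 1536-well plates, dosed by pin tool the next day, and fixed and stained after 5 days in one step with final 0.05% Triton X-100, 1% formaldehyde and 1 ug/ml Hoechst. Dosing was a single drug or a fixed anchor-drug dose plus five library-drug doses (not always all listed) in √10 steps, and values are medians of duplicate plates imaged at 4×.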

[2] = test system: HCC-827
Summary of the method: as §1

[3] = test system: COR-L 105
Summary of the method: as §1

[4] = test system: H3255
Summary of the method: as §1

[5] = test system: EPLC-272H
Summary of the method: as §1

[6] = test system: NCI-H520
Summary of the method: as §1

[7] = test system: NCI-H2087
Summary of the method: as §1

[8] = test system: NCI-H647
Summary of the method: as §1

[9] = test system: NCI-H1651
Summary of the method: as §1

[10] = test system: NCI-H522
Summary of the method: as §1

[11] = test system: NCI-H1755
Summary of the method: as §1

[12] = test system: COR-L23
Summary of the method: as §1

[13] = test system: LCLC-103H
Summary of the method: as §1

[14] = test system: NCI-H1975
Summary of the method: as §1

[15] = test system: NCI-H358
Summary of the method: as §1

[16] = test system: NCI-H650
Summary of the method: as §1

[17] = test system: NCI-H1650
Summary of the method: as §1

[18] = test system: NCI-H1437
Summary of the method: as §1

[19] = test system: HCC-15
Summary of the method: as §1

[20] = test system: NCI-H1792
Summary of the method: as §1

[21] = test system: NCI-H727
Summary of the method: as §1

[22] = test system: NCI-H661
Summary of the method: as §1

`COCC1(CO)C(=O)C2CCN1CC2` (stereo not given) [PRIMA-1MET] + N=C(N)NC(=N)NCCc1ccccc1 [Phenformin] (partner 250 µM) was tested, and the relative viability ([1]; first compound 0.2 µM) was 0.215, the relative viability ([1]; first compound 0.6325 µM) was 0.189 and the relative viability ([1]; first compound 2 µM) was 0.155. It also gave a relative viability ([1]; first compound 6.325 µM) of 0.201, a relative viability ([1]; first compound 20 µM) of 0.214 and a relative viability ([2]; first compound 0.2 µM) of 0.433. The relative viability ([2]; first compound 0.6325 µM) was 0.416, the relative viability ([2]; first compound 2 µM) was 0.344 and the relative viability ([2]; first compound 6.325 µM) was 0.367. The relative viability ([2]; first compound 20 µM) was 0.372, the relative viability ([3]; first compound 0.2 µM) was 0.547 and the relative viability ([3]; first compound 0.6325 µM) was 0.438. It also gave a relative viability ([3]; first compound 2 µM) of 0.373, a relative viability ([3]; first compound 6.325 µM) of 0.459 and a relative viability ([3]; first compound 20 µM) of 0.124. The relative viability ([4]; first compound 0.2 µM) was 0.458, the relative viability ([4]; first compound 0.6325 µM) was 0.335 and the relative viability ([4]; first compound 2 µM) was 0.36. For the same compound, the relative viability ([4]; first compound 6.325 µM) was 0.374, the relative viability ([4]; first compound 20 µM) was 0.293 and the relative viability ([5]; first compound 2 µM) was 0.286. For the same compound, the relative viability ([5]; first compound 6.325 µM) was 0.314, the relative viability ([5]; first compound 20 µM) was 0.085 and the relative viability ([6]; first compound 0.2 µM) was 0.605. It also gave a relative viability ([6]; first compound 0.6325 µM) of 0.501, a relative viability ([6]; first compound 2 µM) of 0.314 and a relative viability ([6]; first compound 6.325 µM) of 0.289. It also gave a relative viability ([6]; first compound 20 µM) of 0.155, a relative viability ([7]; first compound 0.2 µM) of 0.315 and a relative viability ([7]; first compound 0.6325 µM) of 0.332. The relative viability ([7]; first compound 2 µM) was 0.494, the relative viability ([7]; first compound 6.325 µM) was 0.463 and the relative viability ([7]; first compound 20 µM) was 0.168. It also gave a relative viability ([8]; first compound 0.2 µM) of 0.405, a relative viability ([8]; first compound 0.6325 µM) of 0.546 and a relative viability ([8]; first compound 2 µM) of 0.453. The relative viability ([8]; first compound 6.325 µM) was 0.514, the relative viability ([8]; first compound 20 µM) was 0.0596 and the relative viability ([9]; first compound 0.2 µM) was 0.297. For the same compound, the relative viability ([9]; first compound 0.6325 µM) was 0.244, the relative viability ([9]; first compound 2 µM) was 0.293 and the relative viability ([9]; first compound 6.325 µM) was 0.377. It also gave a relative viability ([9]; first compound 20 µM) of 0.339, a relative viability ([10]; first compound 0.2 µM) of 0.626 and a relative viability ([10]; first compound 0.6325 µM) of 0.459. It also gave a relative viability ([10]; first compound 2 µM) of 0.534, a relative viability ([10]; first compound 6.325 µM) of 0.619 and a relative viability ([10]; first compound 20 µM) of 0.142. It also gave a relative viability ([11]; first compound 0.2 µM) of 0.613, a relative viability ([11]; first compound 0.6325 µM) of 0.659 and a relative viability ([11]; first compound 2 µM) of 0.406. For the same compound, the relative viability ([11]; first compound 6.325 µM) was 0.635, the relative viability ([11]; first compound 20 µM) was 0.574 and the relative viability ([12]; first compound 0.2 µM) was 0.554. For the same compound, the relative viability ([12]; first compound 0.6325 µM) was 0.413, the relative viability ([12]; first compound 2 µM) was 0.477 and the relative viability ([12]; first compound 6.325 µM) was 0.343. The relative viability ([12]; first compound 20 µM) was 0.0169, the relative viability ([13]; first compound 0.2 µM) was 0.354 and the relative viability ([13]; first compound 0.6325 µM) was 0.283. It also gave a relative viability ([13]; first compound 2 µM) of 0.315, a relative viability ([13]; first compound 6.325 µM) of 0.355 and a relative viability ([13]; first compound 20 µM) of 0.362. For the same compound, the relative viability ([14]; first compound 0.2 µM) was 0.41, the relative viability ([14]; first compound 0.6325 µM) was 0.4 and the relative viability ([14]; first compound 2 µM) was 0.381. The relative viability ([14]; first compound 6.325 µM) was 0.42, the relative viability ([14]; first compound 20 µM) was 0.194 and the relative viability ([15]; first compound 0.2 µM) was 0.341. The relative viability ([15]; first compound 2 µM) was 0.253, the relative viability ([15]; first compound 6.325 µM) was 0.279 and the relative viability ([15]; first compound 20 µM) was 0.0042. For the same compound, the relative viability ([16]; first compound 0.2 µM) was 0.595, the relative viability ([16]; first compound 2 µM) was 0.433 and the relative viability ([16]; first compound 6.325 µM) was 0.482. The relative viability ([16]; first compound 20 µM) was 0.438, the relative viability ([17]; first compound 0.2 µM) was 0.569 and the relative viability ([17]; first compound 0.6325 µM) was 0.443. It also gave a relative viability ([17]; first compound 2 µM) of 0.453, a relative viability ([17]; first compound 6.325 µM) of 0.434 and a relative viability ([17]; first compound 20 µM) of 0.0427. It also gave a relative viability ([18]; first compound 0.2 µM) of 0.322, a relative viability ([18]; first compound 0.6325 µM) of 0.331 and a relative viability ([18]; first compound 2 µM) of 0.259. For the same compound, the relative viability ([18]; first compound 6.325 µM) was 0.298, the relative viability ([18]; first compound 20 µM) was 0.294 and the relative viability ([19]; first compound 0.2 µM) was 0.427. For the same compound, the relative viability ([19]; first compound 0.6325 µM) was 0.471, the relative viability ([19]; first compound 2 µM) was 0.439 and the relative viability ([19]; first compound 6.325 µM) was 0.451. The relative viability ([19]; first compound 20 µM) was 0.172, the relative viability ([20]; first compound 0.2 µM) was 0.352 and the relative viability ([20]; first compound 0.6325 µM) was 0.272. It also gave a relative viability ([20]; first compound 6.325 µM) of 0.238, a relative viability ([20]; first compound 20 µM) of 0.319 and a relative viability ([21]; first compound 0.2 µM) of 0.472. For the same compound, the relative viability ([21]; first compound 0.6325 µM) was 0.395, the relative viability ([21]; first compound 2 µM) was 0.387 and the relative viability ([21]; first compound 6.325 µM) was 0.342. It also gave a relative viability ([21]; first compound 20 µM) of 0.124, a relative viability ([22]; first compound 0.2 µM) of 0.304 and a relative viability ([22]; first compound 0.6325 µM) of 0.261. It also gave a relative viability ([22]; first compound 2 µM) of 0.274, a relative viability ([22]; first compound 6.325 µM) of 0.288 and a relative viability ([22]; first compound 20 µM) of 0.292.
